Here are results for one molecule from patent US7160690B2, “Nitrate sensor” (Arete Associates, priority 2001, dated 2007).

What is called Km is the concentration of substrate that gives half-maximal velocity. The Kd is a measure of binding affinity in units of concentration.

For experiment [1], the system named is FAD. Particulars: 0 to 20 ppm nitrate; FIG. 10, data line 38. As for the experimental part:
(§1) To further investigate the quenching of Mo-MPT 10 by nitrate 30, a comparison study was performed comparing quenching of Mo-MPT 10 versus FAD 14 by nitrate 30. […] The data line labeled 38 represents quenching of FAD 14, while the data line labeled 40 represents quenching of Mo-MPT 10.

The test system of experiment [2] is nitrate reductase. Particulars: read-out: Michaelis constant (Km) of nitrate reduction; nitrate concentration at which the reaction is half maximal; cited from earlier work.
For experiment [3], the system named is molybdenum-molybdopterin (Mo-MPT) center of nitrate reductase. As to conditions: for lowest nitrate concentration at which quenching of the emission signal is observed: FIG. 8. Here is the method: Instead, the biosensor method of this invention uses fluorescence detection to sense nitrate 30 levels.
Once the Mo-MPT 10 is obtained, its initial fluorescence signal is measured.
The quenched fluorescence (Q) is a function of the maximum possible quenching at an infinite nitrate concentration (Qmax) and the affinity of nitrate for its binding site (Kd) in the vicinity of its binding site, or Mo-MPT 10. Thus, it follows Q=(Q max [nitrate])/(Kd+[nitrate]) where: • Q is the quenched fluorescence; • Qmax is maximal quenching at infinite concentration of nitrate; and • Kd is nitrate affinity for the binding site. Quenching can also be considered in terms of: F=Fo−Q where: • F is the fluorescence in the presence of nitrate; • Fo is the fluorescence in the absence of nitrate; and • Q is the quenched fluorescence.
The data was used to calculate Qmax and Kd based on the above equations.
as §1

Read-outs that look alike come from different tables or passages of the source.

Regarding `O=[N+]([O-])O` [nitrate], the “type of fluorescence quenching of FAD by nitrate / interaction” value in experiment [1] is reported as “no specific interaction”. The Km in experiment [2] was 13 µM. In addition, the “type of fluorescence quenching of Mo-MPT by nitrate” value in experiment [3] (0 to 4 ppm nitrate, FIG. 10, data line 40) is given as “static quenching”. Further, in experiment [3] (fluorescence at 440 nm, FIG. 9, exceeds unity, believed to be an experimental artifact), the “Qmax (maximal quenching at infinite concentration of nitrate)” value is recorded as 1.07. The entries for the “lowest nitrate concentration at which quenching of the emission signal is observed” value in experiment [3] (nitrate added at 0.3 ppm to 3.4 ppm) and in experiment [3] (same as 0.3 ppm) were 0.3 ppm and 23 µmol, respectively. For the same molecule, the Kd in experiment [3] (read-out: Kd (nitrate affinity for the binding site, Mo-MPT), fluorescence at 440 nm, fit of Q=(Qmax[nitrate])/(Kd+[nitrate]), FIG. 9) came to 20 µM.
